Reference: publication PMC9271751, “Synthesis and Evaluation of Coumarin-Chalcone Derivatives as α-Glucosidase Inhibitors” (Frontiers in Chemistry, 2022)
Read-outs that look alike come from different tables or passages of the source.

Key:
[1] = molecular target: T1, α-Glucosidase from Saccharomyces cerevisiae (EC 3.2.1.20) (Saccharomyces cerevisiae, UniProt P53341); assay: α-Glucosidase inhibition kinetics (v vs. enzyme concentration, Lineweaver-Burk plots); format: biochemical; conditions: for Inhibition mechanism (inhibition type): Lineweaver-Burk double reciprocal plot, p-NPG 0.25-1 mM; for Inhibition mechanism (inhibition type) / Reversibility of inhibition: compound 0, 25, 30, 40 μM; for Reversibility of inhibition: plots of v vs. α-glucosidase concentration (0.075-0.15 U/mL); for KIS: enzyme-substrate complex, secondary plot of intercept vs. compound concentration
T1 construct: purchased Sigma-Aldrich
Source text: Generally, according to the type of inhibition, enzyme inhibitors can be divided into reversible inhibitors and irreversible inhibitors ([Abuelizz et al., 2019]). In order to obtain the principle of the combination of enzyme inhibitors and enzymes, it is necessary to study the interaction between enzyme inhibitors and enzymes. Compounds 3j, 3q and 3t with strongest inhibitory activity were chosen for the research of inhibition kinetics against α-glucosidase (the inhibitory mechanism analysis of compound 3t was shown in Figure 2 and figures for the inhibitory mechanism analysis of compounds 3j and 3q have been shown in the supporting information). A series of plots of enzymatic reaction rate (v) vs. α-glucosidase concentration in the presence of inhibitors were generated to identify the type of inhibition that is listed in Figure 1.
The inhibit type of inhibitors on α-glucosidase include four types, named competitive inhibition, non-competitive inhibition, mixed inhibition, and anti-competitive inhibition ([Abuelizz et al., 2019]). The inhibition modes of compounds 3j, 3q and 3t against α-glucosidase were investigated using Lineweaver-Burk double reciprocal plot.
The type of inhibition was identified by the plots of enzymatic reaction rate (V) vs. α-glucosidase concentration. The test method was similar to the above enzyme activity assay. In the presence of different concentrations of compounds 3j, 3q and 3t, respectively (0, 25, 30, and 40 μM), the absorbance change was detected under different concentrations of α-glucosidase (0.075, 0.1, 0.125, and 0.15 U/mL).
The inhibition mode was also detected using a similar method to that described above. In the presence of different concentrations of compounds 3j, 3q and 3t, respectively (0, 25, 30 and 40 μM), the absorbance change was measured under different concentrations of p-NPG (0.25, 0.5, 0.75, 1 mM). The inhibition mode of the inhibitor was obtianed using Lineweaver-Burk plots. The constant KI was obtained by secondary plots of the derivatives concentration (I) vs. Slope, constant KIS was obtained by secondary plots of the derivatives concentration (I) vs. Intercept.

[2] = molecular target: T1, α-Glucosidase from Saccharomyces cerevisiae (EC 3.2.1.20); assay: biochemical
Method: Ethyl acetoacetate, salicylaldehyde and absolute ethanol were analytical pure grade and purchased from Aladdin (Shanghai) Reagent Co., Ltd. Piperidine; glacial acetic acid, petroleum ether and ethyl acetate were supplied by Titan (Shanghai) Technology Co., Ltd.; α-Glucosidase from Saccharomyces cerevisiae (EC 3.2.1.20), 4-nitrophenyl-α-D-[…] (p-NPG), and Dimethyl sulfoxide (DMSO) were supported by Sigma-Aldrich (United States) Chemical Co., Ltd. Melting points were tested on a micro melting-point instrument. ^1H NMR spectra were measured (CDCl3) by Bruker DPX-500 MHz AVANCE with TMS as an internal standard. Mass spectroscopy was performed on a (LCQTM). The absorbance was recorded by a micro-plate reader.
The α-glucosidase inhibitory activity assay of coumarin-chalcone derivatives 3 (a∼v) was conducted using p-NPG as a substrate. ([Pogaku et al., 2019]; [Saeedi et al., 2019]; [Xu et al., 2019]). 10 μl of the test compound and 10 μl of the enzyme (final concentration 0.1 U/ml) were added to 130 μl of PBS (0.1 M phosphate, pH 6.8), and incubated at 37°C for 10 min. Then p-NPG (final concentration 0.25 mM) was added and the absorbance change was measured by a micro-plate reader at 405 nm. All experiments were assayed four times. The percentage of inhibition was obtained using the formula: Inhibition (%) = […] × 100%, where OD1 and OD0 represent the absorbance value of the experimental group and the blank group respectively. […] The IC50 value of each compound was obtained from the fitting curve of inhibition vs. compound concentration.

[3] = p-NPG 0.25 mM, enzyme 0.1 U/ml, PBS pH 6.8, 37°C, read-out: IC50, α-glucosidase inhibitory activity

T1 sequence (P53341 whole entry): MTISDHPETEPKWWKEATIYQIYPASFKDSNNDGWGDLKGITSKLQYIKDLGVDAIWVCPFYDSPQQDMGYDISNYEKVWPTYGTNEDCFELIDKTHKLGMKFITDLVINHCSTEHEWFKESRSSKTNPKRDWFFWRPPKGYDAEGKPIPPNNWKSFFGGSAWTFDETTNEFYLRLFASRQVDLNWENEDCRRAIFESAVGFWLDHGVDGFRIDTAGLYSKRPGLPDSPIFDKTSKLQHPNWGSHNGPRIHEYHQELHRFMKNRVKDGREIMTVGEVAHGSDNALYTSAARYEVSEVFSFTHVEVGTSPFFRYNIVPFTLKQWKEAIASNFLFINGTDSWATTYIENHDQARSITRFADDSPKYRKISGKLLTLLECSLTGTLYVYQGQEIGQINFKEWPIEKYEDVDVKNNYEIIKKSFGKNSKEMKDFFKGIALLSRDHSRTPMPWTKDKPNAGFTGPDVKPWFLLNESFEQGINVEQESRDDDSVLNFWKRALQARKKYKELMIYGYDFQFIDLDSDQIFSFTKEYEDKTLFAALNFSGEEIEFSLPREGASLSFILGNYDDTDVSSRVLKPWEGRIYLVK

In the case of `O=C(/C=C/c1ccc(Br)cc1)c1cc2ccccc2oc1=O` [Compound 3t, (E)-3-[3-(4-bromophenyl)acryloyl]-2H-chromen-2-one], the Ki [1] is reported as 11 µM, the “Inhibition mechanism (inhibition type)” value [1] is reported as “mixed-type inhibition” and the Reversibility of inhibition [1] is reported as “reversible”. It also gave an IC50 [2] of 24.1 ± 2.36 µM.

For `O=C(/C=C/c1cccc(F)c1)c1cc2ccccc2oc1=O` [Compound 3h, (E)-3-[3-(3-fluorophenyl)acryloyl]-2H-chromen-2-one], the IC50 [2] was 45.7 ± 1.28 µM.

`O=C(/C=C/c1ccccc1Br)c1cc2ccccc2oc1=O` [Compound 3r, (E)-3-[3-(2-bromophenyl)acryloyl]-2H-chromen-2-one] showed an IC50 [2] of 38.6 ± 1.87 µM.

Compound `O=C(/C=C/c1cccs1)c1cc2ccccc2oc1=O` [Compound 3u, (E)-3-[3-(thiophen-2-yl)acryloyl]-2H-chromen-2-one] has an IC50 [2, 3] of 109 ± 2.69 µM.

`O=C(/C=C/c1cccc(C(F)(F)F)c1)c1cc2ccccc2oc1=O` [Compound 3m, (E)-3-{3-[3-(trifluoromethyl)phenyl]acryloyl}-2H-chromen-2-one] was tested, and the IC50 [2, 3] was 64.7 ± 1.82 µM.

In the case of `O=C(/C=C/c1ccc(F)cc1)c1cc2ccccc2oc1=O` [Compound 3i, (E)-3-[3-(4-fluorophenyl)acryloyl]-2H-chromen-2-one], the IC50 [2] is reported as 35.68 ± 0.28 µM.

With `O=C(/C=C/c1ccccc1)c1cc2ccccc2oc1=O` [Compound 3a, (E)-3-cinnamoyl-2H-chromen-2-one] the IC50 [2] was 125.3 ± 1.18 µM.

`CSc1ccc(/C=C/C(=O)c2cc3ccccc3oc2=O)cc1` [Compound 3f, (E)-3-{3-[4-(methylthio)phenyl]acryloyl}-2H-chromen-2-one] was tested, and the IC50 [2, 3] was 75.5 ± 0.98 µM.

In the case of `O=C(/C=C/c1ccc(F)cc1F)c1cc2ccccc2oc1=O` [Compound 3j, (E)-3-[3-(2,4-difluorophenyl)acryloyl]-2H-chromen-2-one], the “Inhibition mechanism (inhibition type)” value [1] is reported as “mixed-type inhibition”, the KIS ([1]; inhibition constant) is reported as 25.94 µM and the Ki ([1]; inhibition constant, free enzyme, secondary plot of slope vs. compound concentration, read-out: KI) is reported as 19.5 µM. The Reversibility of inhibition [1] was “reversible” and the IC50 [2, 3] was 30.3 ± 2.53 µM.

`O=C(/C=C/c1cccc(Cl)c1)c1cc2ccccc2oc1=O` [Compound 3p, (E)-3-[3-(3-chlorophenyl)acryloyl]-2H-chromen-2-one] gave an IC50 [2] of 52.6 ± 2.45 µM.

Compound `COc1ccc(/C=C/C(=O)c2cc3ccccc3oc2=O)cc1` [Compound 3e, (E)-3-[3-(4-methoxyphenyl)acryloyl]-2H-chromen-2-one] has an IC50 [2, 3] of 105 ± 1.98 µM.

With `O=C(/C=C/c1ccccc1C(F)(F)F)c1cc2ccccc2oc1=O` [Compound 3l, (E)-3-{3-[2-(trifluoromethyl)phenyl]acryloyl}-2H-chromen-2-one] the IC50 [2, 3] was 71.5 ± 2.14 µM.

`O=C(/C=C/c1ccc(Cl)cc1)c1cc2ccccc2oc1=O` [Compound 3q, (E)-3-[3-(4-chlorophenyl)acryloyl]-2H-chromen-2-one] was tested, and the Ki [1] was 16.1 µM, the “Inhibition mechanism (inhibition type)” value [1] was “mixed-type inhibition” and the KIS ([1]; inhibition constant) was 20.34 µM. For the same compound, the Reversibility of inhibition [1] was “reversible” and the IC50 [2] was 29.7 ± 2.68 µM.

Work on `COc1cccc(/C=C/C(=O)c2cc3ccccc3oc2=O)c1` [Compound 3d, (E)-3-[3-(3-methoxyphenyl)acryloyl]-2H-chromen-2-one] yielded an IC50 [2, 3] of 96.4 ± 1.37 µM.

`O=C(/C=C/c1ccccc1F)c1cc2ccccc2oc1=O` [Compound 3g, (E)-3-[3-(2-fluorophenyl)acryloyl]-2H-chromen-2-one] was tested, and the IC50 [2] was 48.4 ± 1.42 µM.

With `O=C(/C=C/c1ccc(C(F)(F)F)cc1)c1cc2ccccc2oc1=O` [Compound 3n, (E)-3-{3-[4-(trifluoromethyl)phenyl]acryloyl}-2H-chromen-2-one] the IC50 [2, 3] was 53.6 ± 1.95 µM.

`O=C(/C=C/c1ccccc1Cl)c1cc2ccccc2oc1=O` [Compound 3o, (E)-3-[3-(2-chlorophenyl)acryloyl]-2H-chromen-2-one] gave an IC50 [2] of 59.7 ± 1.73 µM.

`O=C(/C=C/c1ccc(F)c(F)c1)c1cc2ccccc2oc1=O` [Compound 3k, (E)-3-[3-(3,4-difluorophenyl)acryloyl]-2H-chromen-2-one] gave an IC50 [2, 3] of 49.7 ± 3.28 µM.

`O=C(/C=C/c1cc2ccccc2[nH]1)c1cc2ccccc2oc1=O` [Compound 3v, (E)-3-[3-( ^ 1 H-indol-2-yl)acryloyl]-2H-chromen-2-one] gave an IC50 [2, 3] of 103 ± 1.45 µM.

Work on `Cc1ccc(/C=C/C(=O)c2cc3ccccc3oc2=O)cc1` [Compound 3b, (E)-3-[3-(p-tolyl)acryloyl]-2H-chromen-2-one] yielded an IC50 [2, 3] of 95.2 ± 1.35 µM.

Work on `O=C(/C=C/c1cccc(Br)c1)c1cc2ccccc2oc1=O` [Compound 3s, (E)-3-[3-(3-bromophenyl)acryloyl]-2H-chromen-2-one] yielded an IC50 [2] of 35.6 ± 2.18 µM.

With `COc1ccccc1/C=C/C(=O)c1cc2ccccc2oc1=O` [Compound 3c, (E)-3-[3-(2-methoxyphenyl)acryloyl]-2H-chromen-2-one] the IC50 [2, 3] was 60.9 ± 2.74 µM.
